Results taken from paper PMC7163917 (European journal of medicinal chemistry, 2020).
Where two headings read alike, the source gives them in different places.

Assays:
[1] = tested on: phosphorylation of ERK1/2 in PC12 cells; experiment: NGF-induced phosphorylation of ERK1/2 in PC12 cells; assay type: cell-based; conditions: 20 μM inhibitor, NGF 5 min
STEP F523A mutant = STEP F523A mutant (Homo sapiens, UniProt P54829, F547A)
STEP [2] = target: T1, STEP (Homo sapiens, UniProt P54829); experiment: Ki measurement and Lineweaver-Burk kinetic analysis of STEP inhibition; assay type: biochemical; conditions: pNPP, pH 6.0, 30 °C
T1 sequence (P54829 300-555 limits assumed): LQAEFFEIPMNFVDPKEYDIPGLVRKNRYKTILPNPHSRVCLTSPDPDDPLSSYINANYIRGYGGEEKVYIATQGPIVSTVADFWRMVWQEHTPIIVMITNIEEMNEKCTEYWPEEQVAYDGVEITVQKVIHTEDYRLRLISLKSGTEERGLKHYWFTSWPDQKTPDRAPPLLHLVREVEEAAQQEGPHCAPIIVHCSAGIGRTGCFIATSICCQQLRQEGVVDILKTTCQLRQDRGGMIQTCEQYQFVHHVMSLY

[3] = tested on: phosphorylation of Pyk2 in PC12 cells; experiment: NGF-induced phosphorylation of Pyk2 in PC12 cells; assay type: cell-based; conditions: 20 μM inhibitor, NGF 5 min
STEP [4] = target: T1, STEP; experiment: STEP-catalyzed pNPP hydrolysis inhibition; assay type: biochemical; conditions: ST3 analogs, removal of carboxyl and hydroxyl group

Chain of STEP F523A mutant (P54829 282-563 F547A): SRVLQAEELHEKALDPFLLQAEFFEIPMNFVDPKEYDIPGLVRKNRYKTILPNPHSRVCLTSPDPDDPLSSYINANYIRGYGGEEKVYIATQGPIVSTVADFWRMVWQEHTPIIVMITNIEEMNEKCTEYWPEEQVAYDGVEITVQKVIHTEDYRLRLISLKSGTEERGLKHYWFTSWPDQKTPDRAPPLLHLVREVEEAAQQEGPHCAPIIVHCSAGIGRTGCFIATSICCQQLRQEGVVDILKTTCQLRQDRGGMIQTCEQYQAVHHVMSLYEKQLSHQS

| SMILES | effect on NGF-induced phosphorylation of ERK1/2 [1] | inhibitory activity in STEP F523A mutant compared with wild type (STEP F523A mutant; STEP F523A mutant) | inhibition pattern (Lineweaver-Burk plot) (STEP [2]) | effect on NGF-induced phosphorylation of Pyk2 [3] | effect of structural change on STEP inhibitory activity (STEP [4]) | inhibitory activity in STEP F523A mutant compared with wild type (STEP F523A mutant) |
| --- | --- | --- | --- | --- | --- | --- |
| Cc1cc(C(=O)O)ccc1-c1ccc(C=C2C(=O)c3ccccc3C2=O)o1 [ST3–5] | significantly increased | decreased | competitive | significantly increased |  |  |
| Cc1cc(-c2ccc(/C=C3\Sc4ccccc4C3=O)o2)ccc1Cl [ST3–1] |  |  |  |  | significantly decreased |  |
| O=C(O)c1cc(-c2ccc(/C=C3\Sc4ccccc4C3=O)o2)ccc1O [ST3] | significantly increased |  | competitive | significantly increased |  |  |
| COC(=O)c1cccc(-c2ccc(/C=C3\Sc4ccccc4C3=O)o2)c1 [ST3–3] |  |  |  |  | significantly decreased |  |
| O=C(O)c1cccc2c1NC(c1cccc(Br)c1)C1CC(Sc3ccccc3[N+](=O)[O-])C(Cl)C21 (centres unmarked) [ST2] | significantly increased |  | competitive | significantly increased |  | decreased |
| O=C(O)c1cccc2c1NC(c1ccc(F)cc1)C1CC(Sc3ccccc3[N+](=O)[O-])C(Cl)C21 (centres unmarked) [ST2–5] | significantly increased |  | competitive | significantly increased |  | decreased |
